Source: US9393271B2, “GHRH agonists for islet cell transplantation and function and the treatment of diabetes” (UNIVERSITY OF MIAMI, priority 2012, dated 2016)
Non-standard residues stand in square brackets, D forms with d. Residues, ends and D or L forms follow the SMILES beside them. *: point of attachment. Desaminotyrosyl = O=C(CCc1ccc(O)cc1)*; NMeY = CN[C@@H](Cc1ccc(O)cc1)C(=O)O; Agmatine = N=C(N)NCCCCN*; Nle = CCCC[C@H](N)C(=O)O; Orn = NCCC[C@H](N)C(=O)O; Abu = CC[C@H](N)C(=O)O

Assays:
[1] = target: T1, GHRH receptor (human pituitary membrane homogenates) (Homo sapiens, UniProt Q02643); experiment: GHRH receptor binding, ligand competition with 125I-labeled [His1,Nle27]hGHRH(1-32)NH2 (Table 6); conditions: for Relative affinitiy (Binding potency) vs GHRH: GHRH(1-29) = 1
T1 sequence (Q02643 23-423): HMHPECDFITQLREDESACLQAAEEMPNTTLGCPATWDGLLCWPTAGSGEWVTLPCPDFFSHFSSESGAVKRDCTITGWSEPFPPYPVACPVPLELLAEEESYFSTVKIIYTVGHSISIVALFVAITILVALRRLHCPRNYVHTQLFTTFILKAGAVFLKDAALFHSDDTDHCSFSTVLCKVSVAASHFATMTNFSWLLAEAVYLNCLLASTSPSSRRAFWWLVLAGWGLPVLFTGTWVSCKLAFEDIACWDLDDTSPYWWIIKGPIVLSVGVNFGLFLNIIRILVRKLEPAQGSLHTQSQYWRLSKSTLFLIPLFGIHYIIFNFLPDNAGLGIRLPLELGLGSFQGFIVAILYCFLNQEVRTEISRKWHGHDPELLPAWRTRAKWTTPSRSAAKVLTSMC

[2] = target: T1, GHRH receptor (human pituitary membrane homogenates); experiment: GHRH receptor binding, ligand competition with 125I-labeled JV-1-42 (Table 5); conditions: for Relative affinitiy (Binding potency) vs GHRH: GHRH(1-29) = 1; for Relative affinitiy (Binding potency) vs JI-38: JI-38 = 1
Source text: Normal human pituitaries were purchased from the National Hormone and Peptide Program (A. F. Parlow, Los Angeles, County Harbor-UCLA Medical Center, Torrance, Calif.).

rat pituitary cells = experiment: GH release in superfused rat pituitary cell system; assay type: cell-based; conditions: 1 nM; for GH Response (ng/ml) Average / GH Response (ng/ml) 1 / GH Response (ng/ml) 2 / GH Response (ng/ml) 3: 3-min pulse; for GH Response (ng/ml) Average: average of runs; for GH Response (ng/ml) 1: run 1; for GH Response (ng/ml) 2: run 2; for GH Response (ng/ml) 3: run 3
Protocol: Growth hormone releasing activity. Growth hormone releasing was assayed by using a superfused rat pituitary cell system as described in S. Vigh and A. V. Schally, Peptides 5, Suppl: 241-347, 1984. The new synthetic peptide analog of hGHRH P20356 and JI-38 (as control) were administered for 3 minutes (1 mL perfusate) at 1 nM concentration as shown below. Fractions of 1 ml are collected and the GH content in each was determined by ELISA.
Pituitary cells from 2 male rats were used for each channel of the superfusion system. The cells were exposed to 3-min pulses of the new GHRH agonists or to JI-38 as standard every 30 min. Outflowing samples of each channel (1 ml) were collected every 3 min, and GH levels were determined by ELISA.

[3] = target: T1, GHRH receptor (human pituitary membrane homogenates); experiment: GHRH receptor binding, ligand competition with 125I-labeled JV-1-42 (Table 7); design: Normal human pituitaries were purchased from the National Hormone and Peptide Program; tissue National Hormone and Peptide Program (A. F. Parlow, Harbor-UCLA Medical Center, Torrance, Calif.); host or cells: normal human pituitary, membrane fraction / homogenate; conditions: JI-38 = 1
GH level = experiment: In vivo endocrine activity (GH release), subcutaneous administration; conditions: rat, s.c.
Protocol: Subcutaneous Administration. Adult male rats were used and anesthetized with pentobarbital (6 mg/100 g, b.w.), by i.p. injection. […] Blood samples were taken from the jugular vein 5, 15 and/or 30 minutes after the injection. The blood samples were centrifuged, plasma was removed and the GH level was measured by ELISA. The results are summarized in terms of potency in Table 9.

[4] = fraction 1 (P-20356) / 21 (JI-38)
[5] = fraction 2 (P-20356) / 22 (JI-38)
[6] = fraction 3 (P-20356) / 23 (JI-38)
[7] = fraction 4 (P-20356) / 24 (JI-38)
[8] = fraction 5 (P-20356) / 25 (JI-38)

SMILES	Relative affinitiy (Binding potency) vs GHRH [1]	Relative affinitiy (Binding potency) vs GHRH [2]	Relative affinitiy (Binding potency) vs JI-38 [2]	GH Response (ng/ml) Average (rat pituitary cells; [4])	GH Response (ng/ml) Average (rat pituitary cells; [5])	GH Response (ng/ml) Average (rat pituitary cells; [6])	GH Response (ng/ml) Average (rat pituitary cells; [7])	GH Response (ng/ml) Average (rat pituitary cells; [8])	GH Response (ng/ml) 1 (rat pituitary cells; [4])	GH Response (ng/ml) 1 (rat pituitary cells; [5])	GH Response (ng/ml) 1 (rat pituitary cells; [6])	GH Response (ng/ml) 1 (rat pituitary cells; [7])	GH Response (ng/ml) 1 (rat pituitary cells; [8])	GH Response (ng/ml) 2 (rat pituitary cells; [4])	GH Response (ng/ml) 2 (rat pituitary cells; [5])	GH Response (ng/ml) 2 (rat pituitary cells; [6])	GH Response (ng/ml) 2 (rat pituitary cells; [7])	GH Response (ng/ml) 2 (rat pituitary cells; [8])	Relative affinitiy (Binding potency) vs JI-38 [3]	Stimulation of growth hormone levels after s.c. administration (comparison in words) (GH level)	further results
CC[C@H](C)[C@H](NC(=O)[C@H](C)NC(=O)[C@H](CC(=O)O)NC(=O)[C@H](C)NC(=O)[C@@H](N)Cc1ccc(O)cc1)C(=O)N[C@@H](Cc1ccccc1)C(=O)N[C@H](C(=O)N[C@@H](CC(N)=O)C(=O)N[C@@H](CO)C(=O)N[C@@H](Cc1ccc(O)cc1)C(=O)N[C@@H](CCCNC(=N)N)C(=O)N[C@@H](CCCCN)C(=O)N[C@H](C(=O)N[C@@H](CC(C)C)C(=O)NCC(=O)N[C@@H](CCC(N)=O)C(=O)N[C@@H](CC(C)C)C(=O)N[C@@H](CO)C(=O)N[C@@H](C)C(=O)N[C@@H](CCCNC(=N)N)C(=O)N[C@@H](CCCCN)C(=O)N[C@@H](CC(C)C)C(=O)N[C@@H](CC(C)C)C(=O)N[C@@H](CCC(N)=O)C(=O)N[C@@H](CC(=O)O)C(=O)N[C@H](C(=O)N[C@@H](CCSC)C(=O)N[C@@H](CO)C(=O)N[C@@H](CCCNC(=N)N)C(N)=O)[C@@H](C)CC)C(C)C)[C@@H](C)O [GHRH(1-29), hGHRH(1-29)NH2, reference compound]	1	1																			
CCCC[C@H](NC(=O)[C@@H](NC(=O)[C@H](CC(=O)O)NC(=O)[C@H](CCC(N)=O)NC(=O)[C@H](CC(C)C)NC(=O)[C@H](CC(C)C)NC(=O)[C@H](CCCN)NC(=O)[C@H](CCCNC(=N)N)NC(=O)[C@H](C)NC(=O)[C@H](CO)NC(=O)[C@H](CC(C)C)NC(=O)[C@H](CCC(N)=O)NC(=O)[C@H](CC)NC(=O)[C@H](CC(C)C)NC(=O)[C@@H](NC(=O)[C@H](CCCN)NC(=O)[C@H](CCCNC(=N)N)NC(=O)[C@H](Cc1ccc(O)cc1)NC(=O)[C@H](CO)NC(=O)[C@H](CCC(N)=O)NC(=O)[C@@H](NC(=O)[C@H](Cc1ccccc1)NC(=O)[C@@H](NC(=O)[C@H](C)NC(=O)[C@H](CC(=O)O)NC(=O)[C@H](C)NC(=O)CCc1ccc(O)cc1)[C@@H](C)CC)[C@@H](C)O)C(C)C)[C@@H](C)CC)C(=O)N[C@@H](CC(=O)O)C(=O)NCCCCNC(=N)N [JI-38, reference compound] (Desaminotyrosyl-ADAIFTQSYR[Orn]VL[Abu]QLSAR[Orn]LLQDI[Nle]D-Agmatine)	3.03	2.4	1	49.27 ng/mL	131.71 ng/mL	194.68 ng/mL	137.45 ng/mL	96.70 ng/mL	42.46 ng/mL	143.58 ng/mL	222.13 ng/mL	142.96 ng/mL	96.34 ng/mL	56.07 ng/mL	119.83 ng/mL	167.23 ng/mL	131.93 ng/mL	97.05 ng/mL	1		Relative affinitiy (Binding potency) vs JI-38 ([1]; JI-38 = 1): 1
CCCC[C@H](NC(=O)[C@@H](NC(=O)[C@H](CC(=O)O)NC(=O)[C@H](CCC(N)=O)NC(=O)[C@H](CC(C)C)NC(=O)[C@H](CC(C)C)NC(=O)[C@H](CCCN)NC(=O)[C@H](CCCNC(=N)N)NC(=O)[C@H](C)NC(=O)[C@H](CO)NC(=O)[C@H](CC(C)C)NC(=O)[C@H](CCC(N)=O)NC(=O)[C@H](CC)NC(=O)[C@H](CC(C)C)NC(=O)[C@@H](NC(=O)[C@H](CCCN)NC(=O)[C@H](CCCNC(=N)N)NC(=O)[C@H](Cc1ccc(O)cc1)NC(=O)[C@H](CO)NC(=O)[C@H](CCC(N)=O)NC(=O)[C@@H](NC(=O)[C@H](Cc1ccccc1)NC(=O)[C@@H](NC(=O)[C@H](C)NC(=O)[C@H](CC(=O)O)NC(=O)[C@@H](C)NC(=O)CCc1ccc(O)cc1)[C@@H](C)CC)[C@@H](C)O)C(C)C)[C@@H](C)CC)C(=O)N[C@@H](CC(=O)O)C(=O)NCCCCNC(=N)N [Peptide P-20350, [Dat^1, D-Ala^2, Gln^8, Orn^12, Abu^15, Orn^21, Nle^27, Asp^28, Agm^29]hGHRH(1-29)] (Desaminotyrosyl-[dA]DAIFTQSYR[Orn]VL[Abu]QLSAR[Orn]LLQDI[Nle]D-Agmatine)		101.5	42.7																8.37	stimulated greater growth hormone levels than hGHRH or JI-38	
CCCC[C@H](NC(=O)[C@@H](NC(=O)[C@H](CC(=O)O)NC(=O)[C@H](CCC(N)=O)NC(=O)[C@H](CC(C)C)NC(=O)[C@H](CC(C)C)NC(=O)[C@H](CCCN)NC(=O)[C@H](CCCNC(=N)N)NC(=O)[C@H](C)NC(=O)[C@H](CO)NC(=O)[C@H](CC(C)C)NC(=O)[C@H](CCC(N)=O)NC(=O)[C@H](CC)NC(=O)[C@H](CC(C)C)NC(=O)[C@@H](NC(=O)[C@H](CCCN)NC(=O)[C@H](CCCNC(=N)N)NC(=O)[C@H](Cc1ccc(O)cc1)NC(=O)[C@H](CO)NC(=O)[C@H](CCC(N)=O)NC(=O)[C@@H](NC(=O)[C@H](Cc1ccccc1)NC(=O)[C@@H](NC(=O)[C@H](C)NC(=O)[C@H](CC(=O)O)NC(=O)[C@H](C)NC(=O)[C@H](Cc1ccc(O)cc1)NC)[C@@H](C)CC)[C@@H](C)O)C(C)C)[C@@H](C)CC)C(=O)N[C@@H](CC(=O)O)C(=O)NCCCCNC(=N)N [Peptide P-20356, [N—Me-Tyr^1, Gln^8, Orn^12, Abu^15, Orn^21, Nle^27, Asp^28, Agm^29]hGHRH(1-29)] (H-[NMeY]ADAIFTQSYR[Orn]VL[Abu]QLSAR[Orn]LLQDI[Nle]D-Agmatine)		406.0	171	52.45 ng/mL	337.48 ng/mL	556.46 ng/mL	334.99 ng/mL	197.91 ng/mL	49.98 ng/mL	310.58 ng/mL	491.01 ng/mL	399.95 ng/mL	200.64 ng/mL	54.99 ng/mL	325.76 ng/mL	602.1 ng/mL	270.02 ng/mL	195.18 ng/mL	16.11	stimulated greater growth hormone levels than hGHRH or JI-38	GH Response (ng/ml) 3 (rat pituitary cells; fraction 1): 52.37 ng/mL; GH Response (ng/ml) 3 (rat pituitary cells; fraction 2): 376.11 ng/mL; GH Response (ng/ml) 3 (rat pituitary cells; fraction 3): 576.26 ng/mL; GH-releasing potency in vitro relative to JI-38 (rat pituitary cells; superfused rat pituitary cells): about 3 times
